Earlier results as cited in patent publication US7977452B2, “Janus dendrimers and dendrons” (Dendritic Nanotechnologies, Inc., priority 2005, dated 2011).

Key:
[1] = Gd-chelate PAMAM dendrimer contrast agent
[2] = tested on: Mouse
[3] = tested on: Mouse; remark: listed apart in the source
[4] = in vivo

Row | Compound | Size [1] | LD50 [2] | Effective dose (ED) [3] | Excretion [4]
1 | O=C(O)CN(CCN(CC(=O)O)CC(=O)O)CCN(CC(=O)O)CC(=O)O (Gd complex, metal not drawn) [DTPA, diethylenetriaminepentaacetic acid] | >1 nm | – | – | –
2 | CNC[C@H](O)[C@@H](O)[C@H](O)[C@H](O)CO.CNC[C@H](O)[C@@H](O)[C@H](O)[C@H](O)CO.O=C([O-])CN(CCN(CC(=O)[O-])CC(=O)O)CCN(CC(=O)[O-])CC(=O)O.[Gd+3] [(NMG)2-Gd-DTPA] | – | 8.2 mmol·kg | 0.1 mmol·kg | –
3 | O=C(O)CN(CCN(CC(=O)O)CC(=O)O)CCN(CC(=O)O)CC(=O)O [DTPA, diethylenetriaminepentaacetic acid] | – | – | – | Kidney
4 | O=C([O-])CN1CCNCCN(CC(=O)[O-])CCN(CC(=O)[O-])CC1.[Gd+3] [Gd(III)-DO3A] | – | 7 mmol·kg | 0.1 mmol·kg | –
5 | CNC(=O)CN(CCN(CCN(CC(=O)[O-])CC(=O)NC)CC(=O)[O-])CC(=O)[O-].[Gd+3] [Gd-DTPA-BMA] | – | 34.4 mmol·kg | 0.1 mmol·kg | –
6 | CC(O)CN1CCN(CC(=O)[O-])CCN(CC(=O)[O-])CCN(CC(=O)[O-])CC1.[Gd+3] (stereo not drawn) [Gd-HP-DO3A] | – | 12.0 mmol·kg | 0.1 mmol·kg | –
7 | CNC[C@H](O)[C@@H](O)[C@H](O)[C@H](O)CO.O=C([O-])CN1CCN(CC(=O)[O-])CCN(CC(=O)O)CCN(CC(=O)[O-])CC1.[Gd+3] [NMG-Gd-DOTA] | – | 11.2 mmol·kg | 0.1 mmol·kg | –
